These are literature values, as cited in EP1398318A1, “Process for conducting chemical reactions in a liquid phase in the presence of a catalyst and a 1,3-substituted imidazolium salt” (BASF AKTIENGESELLSCHAFT, priority 2002, dated 2004).

This series concerns the target menschlichen Myeloperoxidase (Homo sapiens, UniProt P05164). Particulars: competitive with hydrogen peroxide at the active centre.

The structures appear in SMILES notation.

menschlichen Myeloperoxidase, sequence (P05164 279-745 limits assumed): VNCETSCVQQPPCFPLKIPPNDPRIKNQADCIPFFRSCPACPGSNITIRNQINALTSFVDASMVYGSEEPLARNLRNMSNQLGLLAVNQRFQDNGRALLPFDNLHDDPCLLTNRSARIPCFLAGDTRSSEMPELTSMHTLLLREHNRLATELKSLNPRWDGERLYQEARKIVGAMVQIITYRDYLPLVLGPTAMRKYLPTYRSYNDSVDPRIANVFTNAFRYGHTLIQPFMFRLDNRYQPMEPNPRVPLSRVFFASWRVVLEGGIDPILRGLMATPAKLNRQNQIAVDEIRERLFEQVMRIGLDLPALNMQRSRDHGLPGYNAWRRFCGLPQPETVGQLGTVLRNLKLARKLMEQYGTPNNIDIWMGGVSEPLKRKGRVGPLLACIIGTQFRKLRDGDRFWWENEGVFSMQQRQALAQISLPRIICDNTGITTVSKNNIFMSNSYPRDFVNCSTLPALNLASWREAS
menschlichen Myeloperoxidase, sequence (P05164 165-278 limits assumed): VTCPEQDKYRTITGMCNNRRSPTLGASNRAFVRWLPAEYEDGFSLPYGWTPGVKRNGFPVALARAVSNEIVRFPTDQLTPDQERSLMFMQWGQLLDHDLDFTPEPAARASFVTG

`Cl` [Chlorid]: the “bindet kompetitiv zu Wasserstoffperoxid am aktiven Zentrum des Enzyms” value is on record as “inhibierend”.
